Data as given in US7067500B2, “Betaines as adjuvants to susceptibility testing and antimicrobial therapy” (priority 1997, dated 2006).

What was measured:
[1] = tested on: M. tuberculosis isolates ATCC 27294, 571/573-BAL, 061-TBR, 52–96-BOL, and 57–96-BOL; assay: Antibiotic screen with additional antibiotics in the presence and absence of CB-18; type: cell-based, Mycobacterium tuberculosis; details: ceftazidime alone (absence of PANTA) at 16 μg/ml final
Description: The experimental design of FIG. 16 was also used to examine the breadth of the CB-18 effect with respect to other, non-β-lactam antibiotics. In these experiments antibiotics (Sigma, St. Louis, Mo.) were manufactured as stock solutions in water or buffer and then diluted with reconstitution fluid and added to the culture bottles prior to inoculation. Nystatin (100 μg/ml final), polymixin B (300 units final), erthromycin (4 μg/ml final), oleandomycin (2 μg/ml final), penicillin G (8 μg/ml final), nalidixic acid (30 μg/ml final), lincomycin (2 μg/ml final), ceftriaxone (32 μg/ml final), and ceftazidime (16 μg/ml final) (ceftazidime was manufactured in 10% sodium bicarbonate) were tested on ATCC 27294, 571/573-BAL, 061-TBR, 52–96-BOL, and 57–96-BOL. All experiments used R.F. and P-caz as controls, and all bottles wherein CB-18 was added used a final concentration of 17 μg/ml. FIG. 28 presents the results of the 571/573-BAL isolate with erythromycin and ceftriaxone. FIG. 29 presents the results of the 061-TBR isolate with polymyxin B, oleandomycin, lincomycin, naldixic acid, penicillin G, and ceftriaxone. FIG. 30 presents the results of the 57–96-BOL isolate with naldixic acid, penicillin G, ceftazidime and ceftriaxone.

gram negative bacteria = assay: Antibiotic sensitivities of BACTEC 12B/PANTA contaminants (MicroScan panels); type: cell-based; details: ceftazidime at 8 μg/ml; contaminants of CB-18 processed specimens on 12B/PANTA
Text: Preliminary studies designed to assess the nature of contaminants breaking through the BACTEC 12B liquid media supplemented with PANTA used discarded respiratory specimens (n=277) from Quest Diagnostics—Baltimore. (NOTE: the BACTEC 12B liquid culture system is one of the standard methods in the art for culturing mycobacteria, and PANTA is an antimicobial supplement containing polymyxin B, azlocillin, nalidixic acid, trimethoprim, and amphotericin B: this culture system is referred to herein as “12B/PANTA” (Becton Dickinson, Cockeysville, Md.)) Specimens were collected and processed with CB-18 according to the procedure above. Approximately 400–500 μl of each sediment was planted on 12B/PANTA. All contaminants were identified by morphology and/or gram stain and then differentiated as either oxidase/catalase, positive or negative. Contaminants were then speciated, and antibiotic sensitivities determined, using MicroScan® panels (Dade, West Sacramento, Calif.).

CC(C)(O/N=C(\C(=O)N[C@@H]1C(=O)N2C(C(=O)[O-])=C(C[n+]3ccccc3)CS[C@H]12)c1csc(N)n1)C(=O)O [ceftazidime]
effect on isolates relative to other antibiotics tested [1]: one of the least innocuous compounds | gram negative bacteria sensitive to ceftazidime (gram negative bacteria): 40 of the 48
